# Reference: patent publication US11807907B2, “Method for diagnosing and treating subjects having single nucleotide polymorphisms in chromosome 2, 2:107,510,000-107,540,000 locus” (NEURIM PHARMACEUTICALS (1991) LTD., priority 2021, dated 2023)
# Marks after values point to notes of the source that are not given here.
# Assays:
# 5HT1a [1] = target: T1, 5HT1a (Homo sapiens, UniProt P08908); test: Functional assay (HTRF, cAMP or IP1), 5HT1a; assay type: cell-based
# T1 sequence (P08908 1-422): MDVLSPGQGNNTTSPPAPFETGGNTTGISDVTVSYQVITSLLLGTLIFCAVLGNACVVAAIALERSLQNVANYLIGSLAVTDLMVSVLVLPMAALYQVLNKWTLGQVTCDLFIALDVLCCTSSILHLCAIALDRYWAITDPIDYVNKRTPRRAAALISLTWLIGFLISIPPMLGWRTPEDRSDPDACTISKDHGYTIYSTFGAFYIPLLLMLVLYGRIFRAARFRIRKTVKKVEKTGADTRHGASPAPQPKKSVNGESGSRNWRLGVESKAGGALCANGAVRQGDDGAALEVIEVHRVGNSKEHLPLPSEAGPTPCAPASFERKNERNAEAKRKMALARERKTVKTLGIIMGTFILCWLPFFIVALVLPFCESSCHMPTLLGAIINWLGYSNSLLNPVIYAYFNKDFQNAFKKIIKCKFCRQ
# From the text: (§1) For the functional assay, Homogeneous Time Resolved Fluorescence (HTRF) was used to measure cAMP or IP1 as products of the functional agonist or antagonist binding of 5-HT1a, 2a,2b, 2c, 4e, 6, 7 to their respective ligand (8-OG-DPAT or serotonin). Cellular dielectric spectroscopy was used to measure impedance as the product of the functional agonist or antagonist binding of 5HT1b and determine their respective ligand (serotonin).
# 5-HT-1d receptor = target: T2, 5-HT-1d receptor (Rattus norvegicus, UniProt P28565); test: 5-HT receptor radioligand binding assay, 5-HT-1d; conditions: CHO cells, 3H serotonin, read-out: IC50 (concentration causing 50% inhibition of binding)
# T2 construct: expressed in transfected cells; host or cells: CHO
# Protocol: (§2) For receptor binding assays, stably expressing 5-HT1a, 1b, 1d and 2c receptors cells (HEK-293, rat cerebral cortex, CHO and HEK-293, respectively) were incubated with 0.3 or 1 nM of their respective radioligand (^3H—OH-DPAT, ^125I CYP, ^3H serotonin and ^3H-mesulergine) alone or in the presence of 1 nM to 10 μM of piromelatine. The bound radioligand was assessed. Non-specific binding was evaluated under the reaction contained with 8-OH-PTA, serotonin and RS-10221 (8-[5-(2,4-Dimethoxy-5-(4-trifluoromethylphenylsulphonamido)phenyl-5-oxopentyl]-1,3,8-triazaspiro[4.5]decane-2,4-dione hydrochloride).
# 5-HT-4 receptor = 5-HT-4 receptor (Homo sapiens, UniProt Q13639); test: 5-HT receptor binding, 5-HT-4; conditions: read-out: IC50 (concentration causing 50% inhibition of binding)
# 5-HT-6 receptor = 5-HT-6 receptor (Homo sapiens, UniProt P50406); test: 5-HT receptor binding, 5-HT-6; conditions: read-out: IC50 (concentration causing 50% inhibition of binding)
# [2] = system: patients with early symptomatic Alzheimer's disease; test: Randomized, placebo controlled study of piromelatine in patients with early symptomatic Alzheimer's disease (cNTB, ADAS-Cog14, NPI, PSQI), analysed by 2:107,510,000-107,540,000 locus polymorphism carrier status; assay type: in vivo, human; set-up: key: ns = non-significant effect; deter = deterioration; conditions: carriers (N = 12); 20 mg daily for 26 weeks
# Protocol: (§3) DNA extraction and SNP genotyping were performed as follows: For 107 patients, whole blood was collected at the time of enrollment, and genomic DNA was extracted from peripheral lymphocytes using a commercial kit. Variant genotyping of a combined Whole Genome and Whole Exome sequencing, was performed. The detection of variants associated with the response of the treatment was performed through a genome wide association study (GWAS) analysis (which is a known case-control paradigm). […] The general case-control allelic test was performed through a Cochran-Armitage trend test. […] The stratification was assessed by a complete-linkage hierarchical clustering using the pairwise population concordance as a constraint. […]
# (§4) To further explore the relationship between these paradoxical responses and other variables in the study, changes in ADAS-Cog14 and relationships with the other variables for the intermediate dose (20 mg) of piromelatine were analyzed (Table 2). […]
# (§5) To further explore the relationship between these paradoxical responses and other variables in the study, changes in cNTB, ADAS-Cog14 and PSQI for the low dose (5 mg) of piromelatine were analyzed (Table 3). […]
# [3] = system: patients with early symptomatic Alzheimer's disease; test: as above; assay type: in vivo, human; set-up: key: ns = non-significant effect; deter = deterioration compared to placebo; conditions: locus polymorphism carriers; 5, 20 and 50 mg daily for 26 weeks; compared to placebo
# Protocol: as §3, §4, §5
# 5HT1a [4] = target: T1, 5HT1a; test: 5-HT receptor radioligand binding assay, 5-HT-1a; set-up: expressed in transfected cells; host or cells: HEK-293; conditions: HEK-293 cells, 3H-OH-DPAT, read-out: IC50 (concentration causing 50% inhibition of binding)
# Protocol: as §2
# 5-HT-2c receptor = target: T3, 5-HT-2c receptor (Homo sapiens, UniProt P28335); test: 5-HT receptor radioligand binding assay, 5-HT-2c; conditions: HEK-293 cells, 3H-mesulergine, read-out: IC50 (concentration causing 50% inhibition of binding)
# T3 construct: expressed in transfected cells; host or cells: HEK-293
# T3 sequence (P28335 33-458): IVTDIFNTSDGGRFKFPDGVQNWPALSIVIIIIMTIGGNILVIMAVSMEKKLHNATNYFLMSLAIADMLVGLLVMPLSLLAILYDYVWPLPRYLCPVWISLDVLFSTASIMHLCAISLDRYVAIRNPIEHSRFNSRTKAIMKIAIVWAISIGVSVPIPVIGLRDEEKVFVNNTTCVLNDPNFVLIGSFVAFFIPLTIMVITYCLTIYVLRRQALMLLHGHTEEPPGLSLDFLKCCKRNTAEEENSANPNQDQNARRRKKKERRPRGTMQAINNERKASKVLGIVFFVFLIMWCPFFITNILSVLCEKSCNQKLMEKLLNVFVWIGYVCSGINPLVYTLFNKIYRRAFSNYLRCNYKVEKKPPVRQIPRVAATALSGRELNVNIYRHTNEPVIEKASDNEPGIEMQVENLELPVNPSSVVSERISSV
# Protocol: as §2
# 5-HT-1b receptor = target: T4, 5-HT-1b receptor (Rattus norvegicus, UniProt P28564); test: 5-HT receptor radioligand binding assay, 5-HT-1b; conditions: rat cerebral cortex, 125I CYP, read-out: IC50 (concentration causing 50% inhibition of binding)
# T4 construct: stably expressing 5-HT1a, 1b, 1d and 2c receptors cells (HEK-293, rat cerebral cortex, CHO and HEK-293, respectively); from tissue; host or cells: rat cerebral cortex
# Protocol: as §2
# 5-HT1d = 5-HT1d (Homo sapiens, UniProt P28221); test: Functional assay, 5-HT1d; assay type: cell-based
# From the text: [Worded in the source for another target; this target is reported under the same test.] as §1
# [5] = system: patients with early symptomatic Alzheimer's disease; test: Randomized, placebo controlled study of piromelatine in patients with early symptomatic Alzheimer's disease (cNTB, ADAS-Cog14, NPI, PSQI), analysed by 2:107,510,000-107,540,000 locus polymorphism carrier status; assay type: in vivo, human; set-up: key to Improvement, cNTB / Improvement, PSQI: ns = non-significant effect; deter = deterioration compared to placebo
# Protocol: DNA extraction and SNP genotyping were performed as follows: For 107 patients, whole blood was collected at the time of enrollment, and genomic DNA was extracted from peripheral lymphocytes using a commercial kit. Variant genotyping of a combined Whole Genome and Whole Exome sequencing, was performed. The detection of variants associated with the response of the treatment was performed through a genome wide association study (GWAS) analysis (which is a known case-control paradigm). […] The general case-control allelic test was performed through a Cochran-Armitage trend test. […] The stratification was assessed by a complete-linkage hierarchical clustering using the pairwise population concordance as a constraint. The SNP calling was done on the aligned BAM files using DRAGEN: support.illumina.com/help/DRAGEN_Germline_OLH_1000000083701/Content/Source/Informatics/Apps/DRAGENGermlineSmallVarCaller_appDRAG.htm and filter SNPs using VQSR: gatk.broadinstitute.org/hc/en-us/articles/360035531612-Variant-Quality-Score-Recalibration-VQSR.
# To further explore the relationship between these paradoxical responses and other variables in the study, changes in ADAS-Cog14 and relationships with the other variables for the intermediate dose (20 mg) of piromelatine were analyzed (Table 2). […] Moreover, in this trial, 39% of patients treated with the 20 mg piromelatine that were not carriers of the 2:107,510,000-107,540,000 locus polymorphism improved (decreased)>4 points in the ADAS-Cog14 and thus were considered “responders (beneficial response)” vs. only 8% of the patients treated with the 20 mg piromelatine that were carriers of the 2:107,510,000-107,540,000 locus polymorphism (Table 2).
# To further explore the relationship between these paradoxical responses and other variables in the study, changes in cNTB, ADAS-Cog14 and PSQI for the low dose (5 mg) of piromelatine were analyzed (Table 3). […] However, only carriers of a 2:107,510,000-107,540,000 locus polymorphism improved on the computerized Neuropsychological Test Battery (cNTB) upon treatment with the 5 mg piromelatine dose and the main performance domains being the episodic memory domain composite score and attention domain composite score.
# 5-HT1b = 5-HT1b (Homo sapiens, UniProt P28222); test: Functional assay (cellular dielectric spectroscopy, impedance), 5-HT1b; assay type: cell-based
# From the text: as §1
# [6] = system: 60 different ion channels and receptors of different neurotransmitters and hormones; test: Full profile of binding to an additional 60 ion channels and receptors; conditions: 10 μM of piromelatine; none of the 60 assays
# Protocol: A full profile of binding parameters to an additional 60 different ion channels and receptors of different neurotransmitters and hormones was performed (data not shown because none of the 60 receptor assays yielded a significant (>50%) inhibition by 10 μM of piromelatine).
# 5-HT-2a receptor = 5-HT-2a receptor (Homo sapiens, UniProt P28223); test: 5-HT receptor binding, 5-HT-2a; conditions: read-out: IC50 (concentration causing 50% inhibition of binding)
# 5-HT-7 receptor = 5-HT-7 receptor (Homo sapiens, UniProt P34969); test: 5-HT receptor binding, 5-HT-7; conditions: read-out: IC50 (concentration causing 50% inhibition of binding)
# [7] = carriers (N = 12), 20 mg daily for 26 weeks
# [8] = carriers, 5 mg daily for 26 weeks
# [9] = carriers, 5 mg daily for 26 weeks (N = 5)
# [10] = locus polymorphism carriers, 5, 20 and 50 mg daily for 26 weeks, N = 19
# [11] = locus polymorphism non-carriers, 5, 20 and 50 mg daily for 26 weeks, N = 59
# [12] = locus polymorphism non-carriers, 5, 20 and 50 mg daily for 26 weeks, compared to placebo
# [13] = non-carriers (N = 23), 20 mg daily for 26 weeks
# [14] = non-carriers, 5 mg daily for 26 weeks
# [15] = non-carriers, 5 mg daily for 26 weeks (N = 19)
# [16] = whole study population n=352, 5, 20 and 50 mg daily for 6 months
# 5-HT-4 receptor, sequence (Q13639 whole entry): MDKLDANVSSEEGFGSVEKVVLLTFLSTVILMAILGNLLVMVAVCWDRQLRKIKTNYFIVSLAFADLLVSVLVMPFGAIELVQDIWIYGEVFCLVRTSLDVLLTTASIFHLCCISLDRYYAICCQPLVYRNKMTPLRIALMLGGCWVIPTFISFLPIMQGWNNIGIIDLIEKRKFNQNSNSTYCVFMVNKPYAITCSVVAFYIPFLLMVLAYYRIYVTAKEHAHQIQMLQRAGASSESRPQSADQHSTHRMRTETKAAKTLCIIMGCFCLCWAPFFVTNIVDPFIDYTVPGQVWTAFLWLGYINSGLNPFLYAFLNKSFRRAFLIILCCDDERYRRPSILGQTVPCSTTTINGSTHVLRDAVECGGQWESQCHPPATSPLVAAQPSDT
# 5-HT1d, sequence (P28221 whole entry, species assumed): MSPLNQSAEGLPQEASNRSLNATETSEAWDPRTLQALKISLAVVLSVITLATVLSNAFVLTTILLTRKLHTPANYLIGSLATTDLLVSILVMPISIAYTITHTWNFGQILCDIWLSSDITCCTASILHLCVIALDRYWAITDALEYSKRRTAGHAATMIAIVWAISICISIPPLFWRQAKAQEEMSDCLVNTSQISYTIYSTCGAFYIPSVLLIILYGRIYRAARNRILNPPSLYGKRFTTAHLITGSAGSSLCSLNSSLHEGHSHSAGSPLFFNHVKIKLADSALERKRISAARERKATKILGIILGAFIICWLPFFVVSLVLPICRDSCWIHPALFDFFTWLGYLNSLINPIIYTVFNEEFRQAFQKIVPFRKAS
# 5-HT1b, sequence (P28222 whole entry, species assumed): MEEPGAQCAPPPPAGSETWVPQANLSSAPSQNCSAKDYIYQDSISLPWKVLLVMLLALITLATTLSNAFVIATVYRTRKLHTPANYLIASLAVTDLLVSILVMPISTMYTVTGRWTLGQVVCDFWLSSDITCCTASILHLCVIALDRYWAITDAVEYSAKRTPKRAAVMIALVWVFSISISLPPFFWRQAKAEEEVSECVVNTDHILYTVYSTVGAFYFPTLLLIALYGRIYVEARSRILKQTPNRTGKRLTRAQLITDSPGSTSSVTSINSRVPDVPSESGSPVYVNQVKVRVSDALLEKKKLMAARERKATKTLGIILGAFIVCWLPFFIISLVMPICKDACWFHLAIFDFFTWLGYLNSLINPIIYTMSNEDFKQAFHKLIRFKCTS
# T2 sequence (P28565 whole entry): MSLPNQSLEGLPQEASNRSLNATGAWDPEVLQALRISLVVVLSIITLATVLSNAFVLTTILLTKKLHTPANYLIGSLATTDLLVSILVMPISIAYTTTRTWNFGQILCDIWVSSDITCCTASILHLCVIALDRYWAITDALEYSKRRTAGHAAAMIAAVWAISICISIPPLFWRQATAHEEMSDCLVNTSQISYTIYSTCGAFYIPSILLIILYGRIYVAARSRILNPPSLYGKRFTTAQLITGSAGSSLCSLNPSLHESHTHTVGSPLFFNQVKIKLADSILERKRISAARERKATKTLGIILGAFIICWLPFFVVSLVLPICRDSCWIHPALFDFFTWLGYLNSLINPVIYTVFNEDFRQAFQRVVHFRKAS
# 5-HT-6 receptor, sequence (P50406 whole entry): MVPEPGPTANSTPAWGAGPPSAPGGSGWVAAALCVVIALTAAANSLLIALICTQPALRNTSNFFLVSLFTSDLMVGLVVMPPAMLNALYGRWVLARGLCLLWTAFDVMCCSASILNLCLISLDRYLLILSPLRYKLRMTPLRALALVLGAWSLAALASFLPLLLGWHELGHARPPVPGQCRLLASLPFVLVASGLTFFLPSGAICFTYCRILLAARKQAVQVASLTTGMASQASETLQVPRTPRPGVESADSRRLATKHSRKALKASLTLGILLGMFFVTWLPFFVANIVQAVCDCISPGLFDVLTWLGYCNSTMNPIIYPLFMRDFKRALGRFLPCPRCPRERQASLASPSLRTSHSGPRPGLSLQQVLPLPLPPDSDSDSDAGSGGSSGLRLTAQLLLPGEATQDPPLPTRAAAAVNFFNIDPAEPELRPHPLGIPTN
# 5-HT-2a receptor, sequence (P28223 whole entry): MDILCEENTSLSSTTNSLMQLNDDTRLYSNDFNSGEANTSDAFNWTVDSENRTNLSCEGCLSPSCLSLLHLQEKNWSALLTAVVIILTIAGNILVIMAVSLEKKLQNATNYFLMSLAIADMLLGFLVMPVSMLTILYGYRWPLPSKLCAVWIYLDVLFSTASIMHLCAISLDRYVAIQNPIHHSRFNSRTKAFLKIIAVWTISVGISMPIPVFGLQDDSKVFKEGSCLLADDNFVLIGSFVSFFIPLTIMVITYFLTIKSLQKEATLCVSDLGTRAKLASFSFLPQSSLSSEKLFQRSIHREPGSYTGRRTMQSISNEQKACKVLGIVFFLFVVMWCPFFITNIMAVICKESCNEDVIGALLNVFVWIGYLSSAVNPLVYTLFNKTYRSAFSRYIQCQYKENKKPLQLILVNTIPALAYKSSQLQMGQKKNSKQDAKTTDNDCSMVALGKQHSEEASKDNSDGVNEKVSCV
# 5-HT-7 receptor, sequence (P34969 whole entry): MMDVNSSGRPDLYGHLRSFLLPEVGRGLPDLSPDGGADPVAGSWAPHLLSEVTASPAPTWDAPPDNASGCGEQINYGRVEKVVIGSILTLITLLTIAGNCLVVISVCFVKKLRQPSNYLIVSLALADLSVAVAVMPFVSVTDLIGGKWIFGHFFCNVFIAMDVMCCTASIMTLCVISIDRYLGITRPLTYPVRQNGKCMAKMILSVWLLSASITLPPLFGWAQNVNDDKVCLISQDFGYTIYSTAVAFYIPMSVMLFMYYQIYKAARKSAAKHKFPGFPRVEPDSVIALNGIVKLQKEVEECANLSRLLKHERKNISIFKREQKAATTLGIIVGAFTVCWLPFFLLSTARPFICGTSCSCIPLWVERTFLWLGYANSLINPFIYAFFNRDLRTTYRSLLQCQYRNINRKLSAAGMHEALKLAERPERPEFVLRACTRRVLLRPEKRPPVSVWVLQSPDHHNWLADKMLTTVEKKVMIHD
# T4 sequence (P28564 whole entry): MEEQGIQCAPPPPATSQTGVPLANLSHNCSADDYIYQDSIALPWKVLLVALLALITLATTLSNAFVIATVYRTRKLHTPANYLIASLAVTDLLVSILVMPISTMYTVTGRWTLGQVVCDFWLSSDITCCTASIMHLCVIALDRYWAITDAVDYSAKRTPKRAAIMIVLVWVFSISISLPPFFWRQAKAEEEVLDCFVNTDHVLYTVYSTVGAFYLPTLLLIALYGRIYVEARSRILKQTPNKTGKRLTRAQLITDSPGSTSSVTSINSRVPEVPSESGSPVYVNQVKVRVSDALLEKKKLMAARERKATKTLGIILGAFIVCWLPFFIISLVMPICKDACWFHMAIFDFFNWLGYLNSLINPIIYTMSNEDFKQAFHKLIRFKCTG
smiles,measurement,setting,value
"COc1ccc2[nH]cc(CCNC(=O)c3cc(=O)cco3)c2c1 [piromelatine, N-(2-(5-methoxy-1H-indol-3-yl)ethyl)-4-oxo-4H-pyran-2-carboxamide]",agonist activity in the functional assay,5HT1a [1],moderate agonist activity
same,IC50,5-HT-1d receptor,0.46 µM
same,IC50,5-HT-4 receptor,> 10 µM
same,IC50,5-HT-6 receptor,> 10 µM
same,"Improvement, ADAS-Cog14",[2],deter
same,"Improvement, ADAS-Cog14",[3],deter
same,IC50,5HT1a [4],0.6 µM
same,IC50,5-HT-2c receptor,2.8 µM
same,IC50,5-HT-1b receptor,8 µM
same,agonist activity in the functional assay,5-HT1d,moderate agonist activity
same,ADAS-Cog14 % Responders (decrease ≥ 4),[5]; [7],8%
same,ADAS-Cog14 Change from baseline,[5]; [7],3.58
same,"Improvement, NPI",[5]; [7],yes
same,"Improvement, PSQI",[5]; [7],ns
same,"Improvement, cNTB",[5]; [7],yes
same,NPI Change from baseline,[5]; [7],−3.08
same,PSQI Change from baseline,[5]; [7],−0.17
same,cNTB Change from baseline,[5]; [7],0.44
same,"ADAS Cogl4, Cohen's d vs placebo > 0.2",[5]; [8],improvement
same,"PSQI, Cohen's d vs placebo > 0.2",[5]; [8],no improvement
same,"cNTB, Cohen's d vs placebo > 0.2",[5]; [8],improvement
same,ADAS Cogl4 Change from Baseline,[5]; [9],−6.40
same,PSQI Change from baseline,[5]; [9],−3.40
same,cNTB Change from baseline,[5]; [9],0.28
same,cNTB attention domain composite score,"[5]; carriers, 20 mg dose",improved
same,cNTB episodic memory domain composite score,"[5]; carriers, 20 mg dose",improved
same,ADAS-Cog14 Change from baseline,[5]; [10],0.63*
same,cNTB Change from baseline,[5]; [10],0.38*
same,"Improvement, cNTB","[5]; locus polymorphism carriers, 5, 20 and 50 mg daily for 26 weeks, compared to placebo",yes
same,ADAS-Cog14 Change from baseline,[5]; [11],−1.07*
same,cNTB Change from baseline,[5]; [11],−0.04
same,"Improvement, ADAS-Cog14",[5]; [12],yes
same,"Improvement, cNTB",[5]; [12],ns
same,ADAS-Cog14 % Responders (decrease ≥ 4),[5]; [13],39%
same,ADAS-Cog14 Change from baseline,[5]; [13],−2.91
same,"Improvement, ADAS-Cog14",[5]; [13],yes
same,"Improvement, NPI",[5]; [13],yes
same,"Improvement, PSQI",[5]; [13],yes
same,"Improvement, cNTB",[5]; [13],ns
same,NPI Change from baseline,[5]; [13],−2.70
same,PSQI Change from baseline,[5]; [13],−2.13
same,cNTB Change from baseline,[5]; [13],−0.06
same,"ADAS Cogl4, Cohen's d vs placebo > 0.20",[5]; [14],no improvement
same,"PSQI, Cohen's d vs placebo > 0.20",[5]; [14],improvement
same,"cNTB, Cohen's d vs placebo > 0.20",[5]; [14],deterioration
same,ADAS Cogl4 Change from Baseline,[5]; [15],1.11
same,PSQI Change from baseline,[5]; [15],−1.11
same,cNTB Change from baseline,[5]; [15],−0.21
same,"ADAS-Cog14, drug vs placebo",[5]; [16],no statistically significant differences
same,"global composite score of the cNTB, drug vs placebo",[5]; [16],no statistically significant differences
same,agonist activity in the functional assay,5-HT1b,Low agonist activity
same,inhibition in the 60 receptor assays,[6],≤ 50%
same,IC50,5-HT-2a receptor,> 10 µM
same,IC50,5-HT-7 receptor,> 10 µM
